For 6 compounds, ED50 and inhibition results are on record in EP0794185A1, “BICYCLIC THIAZOLE COMPOUND” (MEIJI SEIKA KABUSHIKI KAISHA, priority 1994, dated 1996).

Each structure is given as a SMILES string.

For data set [1], the system named is hyperlocomotion induced by methamphetamine in mice. In words: Anti-methamphetamine effect: inhibition of hyperlocomotion induced by methamphetamine in mice. Format: in vivo, Male ddY mice. The conditions noted are these: Mus musculus, 0.25 h, ip, 15 min after methamphetamine 2 mg/kg sc, locomotion measured for thirty minutes. As to the method:
The antipsychotic activity of the compound according to the present invention was assayed by an index the inhibitory activity on the stimulation of hyperlocomotion induced by methamphetamine in mice. Male ddY mice having a weight of 25 - 35 g were divided into groups each consisting of 3 - 6 animals. The mouse was subcutaneously administered with methamphetamine (2 mg/kg). Fifteen minutes after this administration, the compound of the present invention was intraperitoneally administered. After further fifteen minutes, the animal was then placed in a transparent acrylic box (30 cm x 30 cm x 30 cm) mounted on an apparatus to measure the locomotion for thirty minutes (MUROMACHI KIKAI, ANIMEX AUTO MK-110).

Another data set concerns catalepsy. The experiment in a line: Cataleptogenic effect (extrapyramidal effect, catalepsy provoking activity) in mice. To be noted: male, ddY, mouse, in vivo, ip, catalepsy observed after 20, 30 and 40 minutes. As to the method: The extrapyramidal effect of the compounds according to the present invention was assayed by an index the catalepsy provoking activity as a representative pharmacological evaluation method of the extrapyramidal effect. Male ddY mice having a body weight of 25 - 35 g which were divided into groups each consisting of 3 - 6 animals were subjected to the test. The compound of the present invention was administered intraperitoneally to observe catalepsy after 20, 30 and 40 minutes, respectively. Catalepsy was judged as positive in such cases that a mouse whose front paw was compulsorily hung up on an iron bar having a diameter of 1 mm and horizontally laid at a height of 3 cm remained in such a strained posture for more than 30 seconds. […]

In the next data set the target is T1, serotonin-5-HT2 receptor (Rattus norvegicus, UniProt P14842).
T1 construct: a 5-HT2 receptor of a rat cerebral cortex; from tissue; host or cells: rat cerebral cortex, P2 membrane fraction
In words: Binding to serotonin-5-HT2 receptor, [3H]ketanserin, P2 fraction of rat cerebral cortex. The conditions noted are these: read-out: Inhibition at 10^-9 M (%).

The target of the next data set is T2, dopamine-D2 receptor (Rattus norvegicus, UniProt P61169).
T2 construct: using a P2 fraction of a rat cerebral corpus striatum; from tissue; host or cells: rat cerebral corpus striatum, P2 membrane fraction
The experiment in a line: Binding to dopamine-D2 receptor, [3H]spiperone, P2 fraction of rat cerebral corpus striatum. The conditions noted are these: read-out: Inhibition at 10^-7 M (%).

T2 sequence (P61169 whole entry): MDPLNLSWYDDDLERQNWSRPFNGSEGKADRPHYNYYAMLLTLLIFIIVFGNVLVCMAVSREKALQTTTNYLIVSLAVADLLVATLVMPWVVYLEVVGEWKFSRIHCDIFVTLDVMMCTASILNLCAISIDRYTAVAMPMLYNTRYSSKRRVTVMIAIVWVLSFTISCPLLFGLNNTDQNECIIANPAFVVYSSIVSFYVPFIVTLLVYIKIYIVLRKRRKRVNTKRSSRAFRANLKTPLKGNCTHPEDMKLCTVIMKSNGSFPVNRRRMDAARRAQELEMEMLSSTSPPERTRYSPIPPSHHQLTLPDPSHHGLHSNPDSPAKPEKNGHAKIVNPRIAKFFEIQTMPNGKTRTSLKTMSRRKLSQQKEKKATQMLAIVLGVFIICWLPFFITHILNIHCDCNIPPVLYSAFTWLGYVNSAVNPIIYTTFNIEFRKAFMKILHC
T1 sequence (P14842 whole entry): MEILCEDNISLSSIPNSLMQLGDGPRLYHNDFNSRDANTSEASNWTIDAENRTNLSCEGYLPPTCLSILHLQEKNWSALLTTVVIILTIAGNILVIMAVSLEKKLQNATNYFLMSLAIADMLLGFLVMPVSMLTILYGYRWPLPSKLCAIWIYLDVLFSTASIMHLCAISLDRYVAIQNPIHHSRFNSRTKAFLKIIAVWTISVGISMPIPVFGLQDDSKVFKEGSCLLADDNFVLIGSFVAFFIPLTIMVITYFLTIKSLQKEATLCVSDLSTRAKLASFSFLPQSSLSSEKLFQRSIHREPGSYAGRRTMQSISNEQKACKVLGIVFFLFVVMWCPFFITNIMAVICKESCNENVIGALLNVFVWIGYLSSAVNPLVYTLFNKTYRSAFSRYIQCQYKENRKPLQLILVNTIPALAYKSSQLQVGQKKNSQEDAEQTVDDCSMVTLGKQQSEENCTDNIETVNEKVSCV
Method for dopamine-D2 receptor: The affinity of the compound of the present invention for D2 receptors was studied using a P2 fraction of a rat cerebral corpus striatum. The rat cerebral corpus striatum was homogenized in 0.32 M sucrose in an amount of 10 times that of the rat cerebral corpus striatum, and the homogenate was centrifuged at 900 x g for 10 min. […] An incubation buffer (50 mM Tris, 120 mM NaCl, 5 mM KCl, 1 mM MgCl2, 1 mM CaCl2, pH 7.4) was added to the sediment, and the mixture was then centrifuged at 39,000 x g for 20 min. The sediment was obtained as a P2 fraction. The P2 fraction was incubated at 37°C for 30 min in a buffer containing 0.1 nM [^3H]spiperone and the compound of the present invention with various concentrations. The reaction solution was filtered through a Whatman GF/B glass filter, and the amount of bound [^3H]spiperone was measured by a liquid scintillation counter.
Method for serotonin-5-HT2 receptor: The affinity of the compound of the present invention for a 5-HT2 receptor of a rat cerebral cortex was assayed as follows. A P2 fraction was prepared in the same manner as described above in connection with the above (a). The P2 fraction was incubated at 37°C for 15 min in a 50 mM Tris/HCl buffer (pH 7.4) containing 1 nM [^3H]ketanserin and the compound of the present invention with various concentrations, and the amount of bound [^3H]ketanserin was then measured.

In general, ED50 refers to the dose at which the effect has come halfway, by size or by number of responders. Low readings indicate an effect at a small dose, high ones a need for a large dose. With `O=C(CCCN1CCC(O)(c2ccc(Cl)cc2)CC1)c1ccc(F)cc1` [Haloperidol, haloperidol, reference compound], the ED50 amounted to 0.2 mg/kg in data set [1] and 1.3 mg/kg in the data set with catalepsy.
Turning to `Cc1cn2c(C)c(CCN3CCC(c4noc5cc(F)ccc45)CC3)sc2n1` [Example 11, 3,6-Dimethyl-2-[2-[4-(6-fluoro-1,2-benzisoxazol-3-yl)-1-piperidinyl]ethyl]imidazo[2,1-b]thiazole], the figures for the ED50 (in data set [1]; in the data set on catalepsy) were 0.12 mg/kg and 3.3 mg/kg, respectively.
With `Cc1cc(=O)n2c(C)c(CCN3CCC(c4noc5cc(F)ccc45)CC3)sc2n1` [Example 4, 3,7-Dimethyl-2-[2-[4-(6-fluoro-1,2-benzisoxazol-3-yl)-1-piperidinyl]ethyl]-5H-thiazolo[3,2-a]pyrimidin-5-one], the results for the ED50 (in data set [1]; in the data set on catalepsy) were 0.07 mg/kg and 1.2 mg/kg, respectively.
For `CN(C)CCCN1c2ccccc2Sc2ccc(Cl)cc21` [Chlorpromazine, chlorpromazine, reference compound], the ED50 in data set [1] was determined as 1.1 mg/kg; in the data set with catalepsy it was 6.2 mg/kg.
In general, inhibition refers to the share of the control response that was lost under treatment. With `Cc1cc(=O)n2c(CCN3CCC(c4noc5cc(F)ccc45)CC3)csc2n1` [Example 20, 3-[2-[4-(6-Fluoro-1,2-benzisoxazol-3-yl)-1-piperidinyl]ethyl]-5H-7-methylthiazolo[3,2-a]pyrimidin-5-one], the 50% effect level in data set [1] (ED50) was put at a dose of 0.04 mg/kg. The inhibition at 0.001 µM at serotonin-5-HT2 receptor amounted to 66.3%.
With `Cc1cc(=O)n2c(C)c(CCN3CCC(c4csc5cc(F)ccc45)CC3)sc2n1` [Example 8, 3,7-Dimethyl-2-[2-[4-(6-fluoro-1-benzothiophen-3-yl)-1-piperidinyl]ethyl]-5H-thiazolo[3,2-a]pyrimidin-5-one], the inhibition at 0.1 µM at dopamine-D2 receptor is 95.2%.
